Test results from US20260007684A1, “AMIDE DERIVATIVES FOR INHIBITING NLRP3 AND USES THEREOF” (Ventus Therapeutics U.S., Inc., priority 2023, published 2026).
Read-outs that look alike come from different tables or passages of the source.

Biological target: human NLRP3 (Homo sapiens (Human), UniProt Q96P20)
Assay: Scintillation Proximity (SPA) NLRP3 Assay: displacement of 3H-MCC950
Assay type: binding
[1] = displacement of 3H-MCC950, read-out: SPA IC50
[2] = SPA IC50, displacement of 3H-MCC950

Sequence of human NLRP3 (Q96P20 whole entry): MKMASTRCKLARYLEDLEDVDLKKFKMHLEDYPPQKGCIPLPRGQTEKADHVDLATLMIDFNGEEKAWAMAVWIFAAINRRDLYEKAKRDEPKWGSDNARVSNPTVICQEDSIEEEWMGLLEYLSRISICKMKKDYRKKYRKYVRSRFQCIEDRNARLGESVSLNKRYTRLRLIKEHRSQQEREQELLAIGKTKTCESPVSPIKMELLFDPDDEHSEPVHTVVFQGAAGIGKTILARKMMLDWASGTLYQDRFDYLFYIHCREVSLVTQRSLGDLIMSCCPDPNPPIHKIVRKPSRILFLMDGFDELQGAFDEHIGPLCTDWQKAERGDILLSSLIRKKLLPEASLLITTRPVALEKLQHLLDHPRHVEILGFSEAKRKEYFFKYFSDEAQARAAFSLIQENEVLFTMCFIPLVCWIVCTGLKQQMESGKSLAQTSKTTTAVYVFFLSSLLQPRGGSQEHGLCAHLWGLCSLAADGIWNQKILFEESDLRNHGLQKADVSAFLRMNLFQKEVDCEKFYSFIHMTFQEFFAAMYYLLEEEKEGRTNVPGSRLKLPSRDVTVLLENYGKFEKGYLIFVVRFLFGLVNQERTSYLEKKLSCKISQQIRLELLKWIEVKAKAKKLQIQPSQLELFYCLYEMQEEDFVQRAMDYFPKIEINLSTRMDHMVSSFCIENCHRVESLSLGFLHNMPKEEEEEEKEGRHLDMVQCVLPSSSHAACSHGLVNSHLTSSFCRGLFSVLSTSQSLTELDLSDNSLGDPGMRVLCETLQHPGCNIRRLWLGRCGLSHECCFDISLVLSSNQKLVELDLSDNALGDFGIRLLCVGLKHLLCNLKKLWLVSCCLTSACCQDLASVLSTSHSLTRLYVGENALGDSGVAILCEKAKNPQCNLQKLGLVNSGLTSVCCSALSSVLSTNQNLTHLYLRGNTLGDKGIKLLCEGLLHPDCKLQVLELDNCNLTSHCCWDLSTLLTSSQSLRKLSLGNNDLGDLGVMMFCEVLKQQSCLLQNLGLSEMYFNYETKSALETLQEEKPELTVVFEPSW

| SMILES | IC50 [1] [µM] | other results |
| --- | --- | --- |
| C[C@H]1C[C@@H](NC(=O)C2(c3ccc(OC(F)F)cc3O)CC2)[C@@H]2CC[C@H]1N2c1nnn[nH]1 [43C*, N-((1S,2R,4S,5R)-4-methy1-8-(1H-tetrazol-5-yl)-8-azabicyclo[3.2.1]octan-2-yl)-1-(4-(difluoromethoxy)-2-hydroxyphenyl)cyclopropane-1-carboxamide] | > 100 | – |
| O=C(NC1CCC[C@H]2CC[C@@H]1N2c1nnn[nH]1)C1(c2ccc(C3CC3)cc2O)CC1 (single isomer, unassigned) [93D*] | – | IC50 [2]: 1 to 10 µM |
| Cn1nnc(-c2cccc(NC(=O)C3(c4ccc(Cl)cc4)CC3)c2)n1 [Comparative Example E2, 1-(4-chlorophenyl)-N-(3-(2-methyl-2H-tetrazol-5-yl)phenyl)cyclopropane-1-carboxamide, reference compound] | – | IC50 (read-out: SPA IC50): > 500 µM |
| C[C@H]1CCN(c2nnn[nH]2)C[C@H](NC(=O)C2(c3ccc(C(F)(F)F)c(F)c3O)CC2)C1 (single isomer, unassigned) [31C*, 1-(3-fluoro-2-hydroxy-4-(trifluoromethyl)phenyl)-N-(5-methyl-1-(1H-tetrazol-5-yl)azepan-3-yl)cyclopropane-1-carboxamide] | 10 to 50 | – |
| O=C(N[C@H]1CC[C@@H]2CC[C@H]1N2c1nnn[nH]1)C1(c2ccc(OC(F)(F)F)cc2O)CC1 [78B*, N-((1R,2S,5R)-8-(1H-tetrazol-5-yl)-8-azabicyclo[3.2.1]octan-2-yl)-1-(2-hydroxy-4-(trifluoromethoxy)phenyl)cyclopropane-1-carboxamide] | 1 to 10 | – |
| C[C@H]1CCN(c2nnn[nH]2)C[C@@H](NC(=O)C2(c3ccc(Cl)cc3)CC2)C1 (single isomer, unassigned) [12D*, 1-(4-chlorophenyl)-N-(5-methyl-1-(1H-tetrazol-5-yl)azepan-3-yl)cyclopropane-1-carboxamide] | 10 to 50 | – |
| O=C(N[C@H]1CCC[C@@H]2CC[C@H]1N2c1nnn[nH]1)C1(c2ccc(C3CC3)cc2O)CC1 [93B*, N-((1R,2S,6R)-9-(1H-tetrazol-5-yl)-9-azabicyclo[4.2.1]nonan-2-yl)-1-(4-cyclopropyl-2-hydroxyphenyl)cyclopropane-1-carboxamide] | – | IC50 [2]: 1 to 10 µM |
| C[C@@H]1C[C@H](NC(=O)C2(c3ccc(Cl)cc3)CC2)[C@H]2CC[C@@H]1N2c1nnn[nH]1 [80B*, 1-(4-chlorophenyl)-N-((1R,2S,4R,5S)-4-methyl-8-(1H-tetrazol-5-yl)-8-azabicyclo[3.2.1]octan-2-yl)cyclopropane-1-carboxamide] | 10 to 50 | – |
| C[C@@H]1C[C@H](NC(=O)C2(c3ccc(C4CC4(F)F)cc3)CC2)[C@H]2CC[C@@H]1N2c1nnn[nH]1 (single isomer, unassigned) [37B*] | 10 to 50 | – |
| C[C@@H]1C[C@@H]2CC[C@H]([C@@H](NC(=O)C3(c4ccc(C(F)(F)F)cc4)CC3)C1)N2c1nnn[nH]1 [104F*, N-((1R,2S,4S,6S)-4-methyl-9-(1H-tetrazol-5-yl)-9-azabicyclo[4.2.1]nonan-2-yl)-1-(4-(trifluoromethyl)phenyl)cyclopropane-1-carboxamide] | – | IC50 [2]: 10 to 50 µM |
| C[C@H]1CCN(c2nnn[nH]2)C[C@@H](NC(=O)C2(c3ccc(Br)cc3)CC2)C1 (single isomer, unassigned) [59D*] | 1 to 10 | – |
| C[C@H]1C[C@@H](NC(=O)C2(c3ccc(Cl)cc3)CC2)[C@@H]2CC[C@H]1N2c1nnn[nH]1 [80C*, 1-(4-chlorophenyl)-N-((1S,2R,4S,5R)-4-methyl-8-(1H-tetrazol-5-yl)-8-azabicyclo[3.2.1]octan-2-yl)cyclopropane-1-carboxamide] | > 100 | – |
| Cc1cc(C2(C(=O)N[C@@H]3C[C@H](C)CCN(c4nnn[nH]4)C3)CC2)ccc1C(F)(F)F (single isomer, unassigned) [6A*, N-(5-methyl-1-(1H-tetrazol-5-yl)azepan-3-yl)-1-(3-methyl-4-(trifluoromethyl)phenyl)cyclopropane-1-carboxamide] | 1 to 10 | – |
| Cc1ccc(C2(C(=O)N[C@H]3C[C@@H](C)CCN(c4nnn[nH]4)C3)CC2)c(O)c1F (single isomer, unassigned) [22D*, 1-(3-fluoro-2-hydroxy-4-methylphenyl)-N-(5-methyl-1-(1H-tetrazol-5-yl)azepan-3-yl)cyclopropane-1-carboxamide] | 1 to 10 | – |
| C[C@@H]1C[C@H](NC(=O)C2(c3ccc(OC(F)F)cc3)CC2)[C@H]2CC[C@@H]1N2c1nnn[nH]1 (single isomer, unassigned) [35B*] | 50 to 100 | – |
| O=C(N[C@H]1CCC[C@@H]2CC[C@H]1N2c1nnn[nH]1)C1(c2ccc(Cl)cc2)CC1 (single isomer, unassigned) [9B*, N-(9-(1H-tetrazol-5-yl)-9-azabicyclo[4.2.1]nonan-2-yl)-1-(4-chlorophenyl)cyclopropane-1-carboxamide] | – | IC50 [2]: > 100 µM |
| C[C@H]1CCN(c2nnn[nH]2)C[C@H](NC(=O)C2(c3ccc(OC(F)(F)F)c(F)c3O)CC2)C1 (single isomer, unassigned) [28C*, 1-(3-fluoro-2-hydroxy-4-(trifluoromethoxy)phenyl)-N-(5-methyl-1-(1H-tetrazol-5-yl)azepan-3-yl)cyclopropane-1-carboxamide] | > 100 | – |
| C[C@@H]1CCN(c2nnn[nH]2)C[C@@H](NC(=O)C2(c3ccc(OC(F)(F)F)c(F)c3O)CC2)C1 (single isomer, unassigned) [28B*, 1-(3-fluoro-2-hydroxy-4-(trifluoromethoxy)phenyl)-N-(5-methyl-1-(1H-tetrazol-5-yl)azepan-3-yl)cyclopropane-1-carboxamide] | 1 to 10 | – |
| C[C@H]1CCN(c2nnn[nH]2)C[C@H](NC(=O)C2(c3cc(F)c(C(F)(F)F)cc3F)CC2)C1 (single isomer, unassigned) [7C*, 1-(2,5-difluoro-4-(trifluoromethyl)phenyl)-N-(5-methyl-1-(1H-tetrazol-5-yl)azepan-3-yl)cyclopropane-1-carboxamide] | 50 to 100 | – |
| C[C@@H]1CCN(c2nnn[nH]2)C[C@@H](NC(=O)C2(c3cc(F)c(C(F)(F)F)cc3F)CC2)C1 (single isomer, unassigned) [7B*, 1-(2,5-difluoro-4-(trifluoromethyl)phenyl)-N-(5-methyl-1-(1H-tetrazol-5-yl)azepan-3-yl)cyclopropane-1-carboxamide] | 10 to 50 | – |
| C[C@@H]1CCN(c2nnn[nH]2)CC(NC(=O)C2(c3ccc(OC(F)F)cc3)CC2)C1 (stereo in doubt) [58B*, 1-(4-(difluoromethoxy)phenyl)-N-((3S,5R)-5-methyl-1-(1H-tetrazol-5-yl)azepan-3-yl)cyclopropane-1-carboxamide] | 1 to 10 | – |
| C[C@@H]1CCN(c2nnn[nH]2)C[C@@H](NC(=O)C2(c3ccc(Cl)cc3F)CC2)C1 (single isomer, unassigned) [56B*] | 1 to 10 | – |
| C[C@H]1CCN(c2nnn[nH]2)C[C@@H](NC(=O)C2(c3ccc(C4CC4)cc3)CC2)C1 (single isomer, unassigned) [2D*] | 1 to 10 | – |
| C[C@@H]1C[C@H](NC(=O)C2(c3ccc(OC(F)(F)F)cc3)CC2)[C@H]2CC[C@@H]1N2c1nnn[nH]1 [82B*, N-((1R,2S,4R,5S)-4-methyl-8-(1H-tetrazol-5-yl)-8-azabicyclo[3.2.1]octan-2-yl)-1-(4-(trifluoromethoxy)phenyl)cyclopropane-1-carboxamide] | > 100 | – |
| C[C@H]1C[C@@H](NC(=O)C2(c3ccc(C(F)(F)F)cc3F)CC2)[C@@H]2CC[C@H]1N2c1nnn[nH]1 [84C*, 1-(2-fluoro-4-(trifluoromethyl)phenyl)-N-((1S,2R,4S,5R)-4-methy1-8-(1H-tetrazol-5-yl)-8-azabicyclo[3.2.1]octan-2-yl)cyclopropane-1-carboxamide] | > 100 | – |

Second part, led by results:

| IC50 [1] [µM] | SMILES | other results |
| --- | --- | --- |
| 10 to 50 | O=C(N[C@H]1CN(c2nnn[nH]2)CC[C@H]1F)C1(c2ccc(Cl)cc2)CC1 [Compound 50A, 1-(4-chlorophenyl)-N-[(3S,4R)-4-fluoro-1-(1H-tetrazol-5-yl)-3-piperidyl]cyclopropanecarboxamide] | – |
| 1 to 10 | Cc1ccc(C2(C(=O)N[C@H]3C[C@@H](C)CCN(c4nnn[nH]4)C3)CC2)c(O)c1F (single isomer, unassigned) [74D*] | – |
| > 100 | C[C@H]1CCN(c2nnn[nH]2)C[C@H](NC(=O)C2(c3ccc(C(F)(F)F)c(F)c3)CC2)C1 (single isomer, unassigned) [66C*] | – |
| 1 to 10 | Cc1ccc(C2(C(=O)N[C@H]3C[C@H](C)CCN(c4nnn[nH]4)C3)CC2)c(O)c1F (single isomer, unassigned) [74B*] | – |
| > 100 | C[C@H]1CCN(c2nnn[nH]2)C[C@H](NC(=O)C2(c3c(F)cc(Cl)cc3F)CC2)C1 (single isomer, unassigned) [72C*] | – |
| 1 to 10 | C[C@H]1CCN(c2nnn[nH]2)C[C@H](NC(=O)C2(c3ccc(Cl)cc3O)CC2)C1 (single isomer, unassigned) [60C*] | – |
| 1 to 10 | C[C@H]1CCN(c2nnn[nH]2)C[C@@H](NC(=O)C2(c3ccc(OC(F)(F)F)cc3F)CC2)C1 (single isomer, unassigned) [64D*] | – |
| 1 to 10 | C[C@@H]1CCN(c2nnn[nH]2)C[C@@H](NC(=O)C2(c3ccc(C(F)(F)F)cc3F)CC2)C1 (single isomer, unassigned) [68B*] | – |
| 1 to 10 | C[C@@H]1CC[C@H](NC(=O)C2(c3ccc(Cl)cc3O)CC2)CN(c2nnn[nH]2)C1 (single isomer, unassigned) [90D*] | – |
| 50 to 100 | Cc1ccc(C2(C(=O)N[C@H]3C[C@H](C)CCN(c4nnn[nH]4)C3)CC2)cc1 (single isomer, unassigned) [71B*] | – |
| 10 to 50 | C[C@H]1CCN(c2nnn[nH]2)C[C@@H](NC(=O)C2(c3ccc(C(F)(F)F)c(F)c3)CC2)C1 (single isomer, unassigned) [66D*] | – |
| 1 to 10 | C[C@H]1CCN(c2nnn[nH]2)C[C@@H](NC(=O)C2(c3ccc(C(F)(F)F)cc3F)CC2)C1 (single isomer, unassigned) [68D*] | – |
| 1 to 10 | C[C@@H]1CCN(c2nnn[nH]2)C[C@@H](NC(=O)C2(c3c(F)cc(Cl)cc3F)CC2)C1 (single isomer, unassigned) [72B*] | – |
| > 100 | O=C(N[C@H]1CCCN(c2nnn[nH]2)C1)C1(c2ccc(Cl)cc2)CC1 [Compound 10B, (S)—N-(1-(1H-tetrazol-5-yl)piperidin-3-yl)-1-(4-chlorophenyl)cyclopropane-1-carboxamide] | – |
